Counter-ions that a name gives are not always drawn. Like-named read-outs stand apart in the source and are kept apart here.
Assays:
[1] = tested on: adjuvant induced arthritis; experiment: developing adjuvant arthritis (AA) assay; assay type: in vivo; details: arthritic rats; printed * = p<0.01, ** = p<0.05
Description: Antirheumatic and anti-inflammatory activities of the compounds of the invention were determined using the developing adjuvant arthritis assay in rats and the plasma fibronectin assay in arthritic rats. The developing adjuvant arthritis assay was used in conjunction with the plasma fibronectin assay as a primary screening method in the evaluation of compounds for potential use as disease modifying anti-rheumatic drugs. The procedure used to induce arthritis in rats is a modification of the methods published by Pearson, J. Chron. Dis. 16, 863-874 (1973) and by Glenn et al., Amer. J. Vet. Res. 1180-1193 (1965). Adjuvant induced arthritis bears many of the traits of rheumatoid arthritis. It is a chronic, progressive, deforming arthritis of the peripheral joints, with a primary mononuclear cell response consisting of bone and joint space invasion by pannus. In order to detect disease modifying anti-rheumatic drug activity, drug treatment is started before the disease has become irrevocably established. Since such drugs are not designed to be administered prophylactically, drug treatment of adjuvant arthritis is initiated at a time when the disease is developing but is not yet irreversible. Animals develop significant systemic arthritic disease which can be measured by swelling of the non-injected rear paw (NIP) 15 to 20 days following an initial injection on day 1 of complete Freund's adjuvant into the right hindfoot paw.
(§1) Data in the developing adjuvant arthritis (AA) and plasma fibronectin (FN) assays are expressed as percent inhibition, i.e. inhibition of non-injected paw inflammation (NIP) and injected paw (RPV) and lowering of plasma fibronectin, the asterisks * and ** indicating statistical significance at the p<0.01 and p<0.05 levels, respectively. Compounds are considered active at p<0.05 level. Non-statistically significant results are recorded as "------ ". In the acetylcholine-induced abdominal constriction test, the test compounds were administered either as suspensions in gum tragacanth (GT) or as aqueous solutions prepared by addition of just sufficient dilute aqueous methanesulfonic acid (MS) or dilute aqueous lactic acid (LA) to dissolve the compound. The compounds are identified by the example number above where their preparations are described. All data in the anti-bradykinin, rat writhing and Randall-Selitto tests were obtained on oral administration.

[2] = tested on: mouse vasa deferentia preparation; experiment: mouse vas deferens test (MVD); assay type: cell-based; details: inhibition of contractions, in vitro, active at 5.0 μM or less
Excerpt: It has been shown previously that smoking marijuana reduces intraocular pressure in man [Helper and Frank, Marijuana Smoking and Intraocular Pressure., J. Am. Med. Assoc. 217, 1392 (1971)]. Topical application or systemic injection of delta-9 tetrahydrocannabinol, a principal active ingredient in marijuana, also reduces intraocular pressure [Purnell and Gregg, delta-9 Tetrahydrocannabinol, Euphoria and Intraocular Pressure in Man., Ann. Opth. 7, 921-923 (1975); Green and Pederson, Effect of delta-9 Tetrahydrocannabinol on Aqueous Dynamics and Ciliary Body Permeability in the Rabbit Eye., Exptl. Eye Research 15, 499-507 (1973); Colasanti, Craig and Allara, Intraocular Pressure, Ocular Toxicity and Neurotoxicity after Administration of Cannabinol or Cannibigerol, Exptl. Eye Research 39, 252-259 (1984)]. Similarly, synthetic cannabinoids also reduce intraocular pressure [Green, Symunds, Oliver and Elijah, Intraocular Pressure Following Systemic Administration of Cannabinoids., Curr. Eye Research 2, 247-253 (1982); Tiedeman, Shields, Weber, Crow, Coccetto, Harris and Howes, Opthalmology, 88, 270-277 (1981); Colasanti et al., supra]. Cannabinoid receptor binding sites can be defined as those to which radio-labelled 4-(1,1-dimethylheptyl)-2,3'-dihydroxy-6'alpha-(3-hydroxypropyl)-1', 2', 3', 4', 5', 6'-hexahydrobiphenyl (CP 55940) binds in a specific and saturable manner and the binding sites are heterogeneously distributed in the brain [Devane, Dysarz, Johnson, Melvin and Howlett, Determination and Characterization of a Cannabinoid Receptor in Rat Brain, Molecular Pharm. 34, 605-613 (1988)]. Natural and synthetic cannabinoids and certain of the compounds of the present invention, as more particularly described above, bind to CP 55940 binding sites. […] It is believed that agonist activity at the cannabinoid receptor mediates the anti-glaucoma actions of cannabinoids, and that agonist activity at this receptor correlates with ocular pressure lowering actions in man. Accordingly the cannabinoid receptor agonist activity of the compounds of the present invention indicate their usefulness in reducing ocular pressure.

[3] = tested on: acetic acid-induced writhing; experiment: acetic acid-induced writhing assay in the rat (RW); assay type: in vivo; details: for ED50: Rattus norvegicus, po; for ED50 / RW ED50: oral administration
Description: as §1

[4] = tested on: acetylcholine-induced abdominal constriction; experiment: acetylcholine-induced abdominal constriction test (ACH); assay type: in vivo; parameters: key to ACH remark (Depr. = depressant): The abbreviations IA and Depr. represent, respectively, inactive and depressant; The abbreviations IA and Depr. represent, respectively, inactive and depressant; details: mice; for ED50 / inhibition in vivo at 100 mg/kg: Mus musculus; for inhibition in vivo at 100 mg/kg: dose level 100, read-out: ACH percent inhibition at dose 100; for ACH remark (Depr. = depressant): remark beside the ED50
Excerpt: J. Pharmacol. Chemotherap. 32, 295 (1968); a modification of the anti-bradykinin test, which is also a primary analgesic screening procedure, described by Berkowitz et al., J. Pharmacol. Exptl. Therap. 177, 500-508 (1971), Blane et al., J. Pharm. Pharmacol. 19, 367-373 (1967), Botha et al., Eur. J. Pharmacol. 6, 312-321 (1969) and Deffenu et al., J. Pharm. Pharmacol. 18, 135 (1966); and the Randall-Selitto analgesic test described by Randall and Selitto, Arch. Int. Pharmacodyn., 111, 409-419 (1957).
as §1, with “Compounds are considered active at p<0.05 level.” left out

[5] = Table 9, Examples, no route marked in the cell, read-out: ACH ED50
[6] = iv, Table 9, iv, read-out: ACH ED50 (iv)

Compound | IC50 ([2]; Mus musculus) [nM] | ED50 [4, 5] [mg/kg] | other results
COc1ccc(C(=O)c2c(C)n(C3CCCN(C)C3)c3ccccc23)cc1.Cl (racemic) [Example 4A, 1-(1-methyl-3-piperidinyl)-2-methyl-3-(4-methoxybenzoyl)-1H-indole hydrochloride] | 650 | 33 | NIP: percent inhibition of non-injected paw inflammation [1]: 50%; RPV: percent inhibition of injected paw [1]: 26%; RW percent inhibition at dose 17 ([3]; oral, dose level 17): 57%
COc1ccc(C(=O)c2c(C)n(C[C@@H]3CC[C@H](C)N3C)c3ccccc23)cc1 (relative stereo) [Example 1Z] | 48 | 14 | ED50 [4, 6]: 3 mg/kg
CN1CCN(C)C(Cn2cc(C(=O)c3cccc4ccccc34)c3ccccc32)C1 (stereo not shown) [3G (base)] | 15 | – | –
CN1CC[N+](C)(C)CC1Cn1cc(C(=O)c2cccc3ccccc23)c2ccccc21 (stereo not shown) [3G (quaternary)] | 156 | – | –
COc1ccc(C(=O)c2cn(C(C)C3CCCN3C)c3ccccc23)cc1 (stereo not shown) [Example 1AA] | – | 23 | IC50 [2]: 127 nM; ED50 [3]: 20 mg/kg; ED50 [4, 6]: 5 mg/kg
COc1ccc(C(=O)c2cn(C(C)C3CCCN3C)c3ccccc23)cc1 (stereo not shown) [Example 1AB] | – | – | IC50 [2]: 560 nM; RW ED50 [3]: 10 mg/kg; ACH ED50 ([4]; Table 9, Examples, no route marked in the cell): 19 mg/kg
CC(C1CCCN1C)n1cc(C(=O)c2ccccc2F)c2ccccc21 (stereo not shown) [Example 1AC] | 111 | – | inhibition in vivo at 100 mg/kg ([4]; Table 9): 40%
COc1ccc(C(=O)c2c(C)n(C(C)C3CCCN3C)c3ccccc23)cc1 (stereo not shown) [Example 1AF] | 542 | 19 | –
COc1ccc(C(=O)c2c(C)n(CC3CCC(C)(C)N3C)c3ccccc23)cc1 (stereo not shown) [Example 1AH] | 330 | – | –
Cc1c(C(=O)c2cccc3ccccc23)c2ccccc2n1CC1CN(C)CCO1 (stereo not shown) [Example 1G] | 50 | – | ED50 [4, 6]: 6 mg/kg; inhibition in vivo at 100 mg/kg ([4]; Table 9): 10%
COc1ccc(C(=O)c2cn(CC3CCCN(C)C3)c3ccccc23)cc1 (stereo not shown) [Example 1N] | 94 | 91 | RW ED50 [3]: 28.3 mg/kg
CN1CCCC(Cn2cc(C(=O)c3cccc4ccccc34)c3ccccc32)C1 (stereo not shown) [Example 1P] | 28 | 144 | NIP: percent inhibition of non-injected paw inflammation [1]: 38%; RPV: percent inhibition of injected paw [1]: 43%
CSc1ccc(C(=O)c2c(C)n(CC3CCCN3C)c3ccccc23)cc1 (stereo not shown) [Example 1V] | 130 | 25 | ED50 [3]: 7 mg/kg
Cc1c(C(=O)c2cccc3ccccc23)c2ccccc2n1C1CCCCN(C)C1 (stereo not shown) [Example 2AB] | 13 | – | inhibition in vivo at 100 mg/kg ([4]; Table 9): 30%
CN1CCCCC1Cn1cc(C(=O)c2ccccc2F)c2ccccc21 (stereo not shown) [Example 2AC] | 3 | 10 | ACH remark (Depr. = depressant) ([4]; Table 9): Depr.
CCc1ccc(C(=O)c2c(C)n(CC3CCCN3C)c3ccccc23)cc1 (stereo not shown) [Example 2AK] | 25 | 40 | ED50 [3]: 7 mg/kg

Compound | IC50 ([2]; Mus musculus) [nM] | ED50 [4, 5] [mg/kg] | other results
O=C(c1cccc2ccccc12)c1cn(CC2CCCCN2Cc2ccccc2)c2ccccc12 (stereo not shown) [Example 2AM] | 51 | – | –
O=C(c1cccc2ccccc12)c1cn(C2CCCCN(Cc3ccccc3)C2)c2ccccc12 (stereo not shown) [Example 2AO] | 480 | – | –
CN1CCCC1Cn1cc(C(=O)c2ccccc2F)c2ccccc21 (stereo not shown) [Example 2M] | 39 | 53 | –
Cc1c(C(=O)c2cccc3ccccc23)c2ccccc2n1CC1CCCN1C (stereo not shown) [Example 2Q] | 2 | – | inhibition in vivo at 100 mg/kg ([4]; Table 9): 20%
CN1CCCCC1CCn1cc(C(=O)c2cccc3ccccc23)c2ccccc21 (stereo not shown) [Example 2U] | 107 | – | RW percent inhibition at dose 30 ([3]; oral, dose level 30): 50%; inhibition in vivo at 100 mg/kg ([4]; Table 9): 30%
COc1ccc(C(=O)c2cn(CC3CCCN3C)c3ccccc23)cc1 (stereo not shown) [Example 2W] | 8 | 11 | ED50 [3]: 3 mg/kg; ACH remark (Depr. = depressant) ([4]; Table 9): Depr.
CN1CCCCC(n2cc(C(=O)c3cccc4ccccc34)c3ccccc32)C1 (stereo not shown) [Example 2Z] | 82 | – | NIP: percent inhibition of non-injected paw inflammation [1]: 65%; ACH percent inhibition at dose 30 (iv) ([4]; Table 9, dose level 30, iv): 80%
O=C(c1cccc2ccccc12)c1cn(CC2COCCN2Cc2ccccc2)c2ccccc12 (stereo not shown) [Example 3F] | 224 | – | ED50 [4, 6]: 2.2 mg/kg
O=C(c1cccc2ccccc12)c1cn(CC2CCCCN2)c2ccccc12 (stereo not shown) [Example 4I] | 0.3 | – | ACH percent inhibition at dose 30 ([4]; Table 9, dose level 30): 30%
Cc1c(C(=O)c2ccccc2F)c2ccccc2n1CC1CCC(C)N1 (stereo not shown) [Example 8E] | 160 | – | –
O=C(c1cccc(F)c1)c1cn(CC2CCCN2)c2ccccc12 (stereo not shown) [Example 8F] | 325 | – | –
O=C(c1cccc2ccccc12)c1cn(CC2COCCN2)c2ccccc12 (stereo not shown) [Example 8G] | 4.7 | – | ACH percent inhibition at dose 30 ([4]; Table 9, dose level 30): 100%
COc1ccc(C(=O)c2c(C)n(C3CN(C)C3)c3ccccc23)cc1.O=C(O)/C=C\C(=O)O [Example 10A, 2-methyl-3-(4-methoxybenzoyl)-1-(1-methyl-3-azetidinyl)-1H-indole maleate] | 495 | 40 | –
CN1CCOCC1Cn1cc(C(=O)c2cccc3ccccc23)c2ccccc21.Cl (stereo not shown) [Example 10C, 3-(1-naphthylcarbonyl)-1-[(4-methyl-3-morpholinyl)methyl]-1H-indole hydrochloride] | 0.4 | – | ACH percent inhibition at dose 30 ([4]; Table 9, dose level 30): 50%
Cc1c(C(=O)c2ccc(O)cc2)c2ccccc2n1CC1CCCN1C (stereo not shown) [Example 11A, 2-methyl-3-(4-hydroxybenzoyl)-1-[(1-methyl-2-pyrrolidinyl)methyl]-1H-indole hydrochloride] | 284 | – | –
Cc1c(C(=O)c2ccc(O)cc2)c2ccccc2n1CC1CCC(C)N1C (stereo not shown) [Example 11B, 2-methyl-3-(4-hydroxybenzoyl)-1-[(1,5-dimethyl-2-pyrrolidinyl)methyl]-1H-indole hydrochloride] | 217 | – | –

Reference: patent US5817651A, “3-arylcarbonyl-1-(C-attached-N-heteryl)-1H-indoles” (Sanofi, priority 1997, dated 1998)
